Source: article PMC8234864, “Early Effects of the Soluble Amyloid β25-35 Peptide in Rat Cortical Neurons: Modulation of Signal Transduction Mediated by Adenosine and Group I Metabotropic Glutamate Receptors” (International Journal of Molecular Sciences, 2021)
Where no end group is shown, it is not given here.

Columns and labels:
[1] = test system: mGluR5; assay: Extracellular immunostaining of mGluR5 in non-permeabilized neurons; format: cell-based, rat; conditions: 25 µM, 24 h, whole-cell immunostaining
Protocol: The quantitative analysis of the levels of Group I mGluR and mGluR2,3 at the plasma membrane was performed with extracellular targeted polyclonal antibodies (mGluR1, mGluR5 and mGluR2,3, Alomone Labs, Jerusalem, Israel), as previously described with minor modifications. Briefly, after 2 weeks in culture, the culture medium was removed and cells washed with Locke Buffer (LB, pH 7.4). Cells were then fixed with 4% paraformaldehyde for 10 min at room temperature and washed with three 10-min intervals with LB.
Nonspecific staining was suppressed by blocking with 3% normal goat serum in LB for 60 min. […]
To evaluate the degree of fluorescence intensity in cortical neurons, fluorescence was measured to estimate the protein expression in the different experimental conditions analyzed. Images (448.6 µm × 335.08 µm) obtained with a digital camera (Leica DFC350FX R2), attached to a Leica DMI6000B (Leica Microsystems, Wetzlar, Germany) fluorescent microscope, were used for quantification (20x HCX PL FLUOTAR 0.4 dry objective). […] Fluorescence intensity was estimated by averaging mean grey values. […] Data were normalized to the total number of cells in the analyzed fields. The mean fluorescence background, calculated in the unstained regions between neurons, was subtracted from the fluorescence intensity of each data point. […]

[2] = biological target: T1, A2AR (Rattus norvegicus, UniProt P30543); assay: [3H]ZM241385 radioligand binding in intact cortical neurons; conditions: for A2AR Bmax: [3H]ZM241385 saturation binding
T1 construct: endogenous in cells; host or cells: rat primary cortical neurons (intact)
T1 sequence (P30543 whole entry): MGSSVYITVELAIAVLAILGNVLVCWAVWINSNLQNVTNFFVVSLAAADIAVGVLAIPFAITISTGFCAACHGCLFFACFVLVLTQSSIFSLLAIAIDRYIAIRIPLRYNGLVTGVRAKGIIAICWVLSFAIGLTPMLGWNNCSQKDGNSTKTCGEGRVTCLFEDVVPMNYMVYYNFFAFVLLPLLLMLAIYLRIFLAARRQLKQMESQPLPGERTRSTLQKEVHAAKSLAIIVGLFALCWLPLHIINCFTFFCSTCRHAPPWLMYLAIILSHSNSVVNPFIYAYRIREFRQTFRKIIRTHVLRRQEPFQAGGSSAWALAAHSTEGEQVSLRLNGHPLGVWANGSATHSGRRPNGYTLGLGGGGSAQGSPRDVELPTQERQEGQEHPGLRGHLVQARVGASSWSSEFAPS
Protocol: Concerning adenosine receptor assessment by radioligand binding, [^3H]DPCPX and [^3H]ZM241385 were employed as selective A1R and A2AR radioligands, as described previously, to determine A1R and A2AR density, respectively. Briefly, primary cortical neurons growth in 24-well plates were washed with serum-free DMEM and pre-incubated with 2 U/mL ADA at 37 °C for 30 min to remove endogenous adenosine. After incubation, the radioligands [^3H]DPCPX (1–20 nM) or [^3H] ZM241385 (1–20 nM) were added in the absence or the presence of CPA in a concentration 10^4 times higher than the radioligand, to obtain non-specific binding to A1R, or 5 mM theophylline, to obtain non-specific binding to A2AR. A specific adenosine uptake inhibitor (1 µM dipyridamole) was added to the reaction mixture to block adenosine receptor ligands’ binding to adenosine transporters. After incubation at 25 °C for 2 h in a final volume of 250 µL, cells were washed with 500 µL of ice-cold buffer and disrupted with 0.2% SDS. Well contents were then transferred to vials and a scintillation liquid mixture was added to measure radioactivity. Two wells from each plate were reserved for protein concentration measurement.

[3] = test system: CREM gene expression; assay: CREM gene expression by real-time PCR; format: cell-based, rat; conditions: 25 µM, 24 or 48 h
Protocol: Total RNA was extracted using an ABI 6100 Nucleic Acid PrepStation according to the manufacturer’s protocol (Applied Biosystems Inc., Foster City, CA, USA). Total RNA from cells was isolated and stored at −80 °C. The quality of isolated RNA was estimated by the ratio A260/A280 and was in the range of 1.9–2.1. RNA integrity was evaluated by agarose gel electrophoresis according to MIQE guidelines using the “bleach gel” method. RNA concentrations were determined from the A260. One microgram of total RNA was reverse transcribed using Applied Biosystems High-Capacity cDNA Archive Kit.
To assess relative gene expression in neurons, quantitative real-time RT-PCR analysis was performed with an Applied Biosystems Prism 7500 Fast Sequence Detection System using TaqMan® universal PCR master mix according to the manufacturer’s specifications. […] Levels of RNA expression were determined using the 7500 Fast System SDS software version 1.3.1 (Applied Biosystems) according to the 2^−ΔΔCt method. […] The results from three independent repeat assays, performed in different plates each using different cDNA’s from the cultures analyzed, were averaged to produce a single mean quantity value for each mRNA.

[4] = neurons exposed to 25 µM for 24 h
[5] = neurons exposed to 25 µM for 48 h

- A2AR affinity (1/KD), change vs control ([2]; 25 µM, 24 or 48 h): no significant variation
- Total A2AR density (Bmax), change vs control ([2]; 25 µM, 24 h): not altered
- Total A2AR density (Bmax) increase over control value ([2]; 25 µM, 48 h): 80%
- Kd [2, 4]: 0.0103 ± 0.00122 µM
- A2AR Bmax [2, 4]: 557 ± 56 fmol/mg prot
- Kd [2, 5]: 0.014 ± 0.00469 µM
- A2AR Bmax [2, 5]: 1178 ± 43 fmol/mg prot
Sequence: GSNKGAIIGLM [Aβ25-35]
- mGluR5 density at the membrane level vs control value [1]: twice over control value
- CREM gene expression [3]: decrease
